Measurements: the supplement of paper PMC10307832

Columns and labels:
Experiment in all cases: relative viability (nuclei count vs DMSO), 5 days (fraction); higher = more cells survive
RO-3306 + Bortezomib = compound: C1=CC2=C(C=CC(=C2)C=C3C(=O)NC(=NCC4=CC=CS4)S3)N=C1 [RO-3306] + CC(C)C[C@H](NC(=O)[C@H](Cc1ccccc1)NC(=O)c1cnccn1)B(O)O [Bortezomib] (partner 0.002 µM)
Method in brief: (§1)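 Lung cancer cell lines, seeded in 1536-well plates, were treated the following day by pin tool with a single drug or with five library-drug doses (not always all listed) in √10 steps on top of a fixed anchor-drug dose. Cells were fixed and nuclei stained in one step after 5 days, and nuclei were counted. Relative viability is the nuclei count for treated wells divided by that for vehicle wells, reported as medians of duplicate plates.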

RO-3306 + Trametinib = compound: C1=CC2=C(C=CC(=C2)C=C3C(=O)NC(=NCC4=CC=CS4)S3)N=C1 [RO-3306] + CC(=O)Nc1cccc(-n2c(=O)n(C3CC3)c(=O)c3c(Nc4ccc(I)cc4F)n(C)c(=O)c(C)c32)c1 [Trametinib] (partner 0.02 µM)
Method in brief: as §1

RO-3306 = compound: C1=CC2=C(C=CC(=C2)C=C3C(=O)NC(=NCC4=CC=CS4)S3)N=C1 [RO-3306]
Method in brief: (§2)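 Viability was defined as treated-well nuclei divided by vehicle-well nuclei, with the median taken over replicate plates. Cells from lung cancer lines sat overnight at 37 °C in 1536-well plates, received five √10-spaced library-drug doses by pinning on vehicle-anchored plates, and grew 5 days without medium change before one-step fixation, permeabilisation and Hoechst staining, 4× imaging and MetaXpress nuclear counts. Only plates with control CV under 25% and at least one doubling were kept.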

[1] = compound: O=S(=O)(c1ccccc1)N(CC(F)(F)F)c1ccc(C(O)(C(F)(F)F)C(F)(F)F)cc1
Method in brief: as §2

Foretinib = compound: COc1cc2c(Oc3ccc(NC(=O)C4(C(=O)Nc5ccc(F)cc5)CC4)cc3F)ccnc2cc1OCCCN1CCOCC1 [Foretinib] (anchor plate); details: 0.25 µM
Method in brief: as §2

## UMC-11
RO-3306 + Bortezomib; first compound 0.01 µM
  relative viability: 1.22
RO-3306 + Bortezomib; first compound 0.03162 µM
  relative viability: 0.407
RO-3306 + Bortezomib; first compound 0.1 µM
  relative viability: 0.64
RO-3306 + Bortezomib; first compound 0.3162 µM
  relative viability: 0.689
RO-3306 + Bortezomib; first compound 1 µM
  relative viability: 0.538
RO-3306 + Trametinib; first compound 0.01 µM
  relative viability: 0.734
RO-3306 + Trametinib; first compound 0.03162 µM
  relative viability: 0.679
RO-3306 + Trametinib; first compound 0.1 µM
  relative viability: 0.641
RO-3306 + Trametinib; first compound 0.3162 µM
  relative viability: 0.793
RO-3306 + Trametinib; first compound 1 µM
  relative viability: 0.531
RO-3306; 0.01 µM
  relative viability: 1.09
RO-3306; 0.03162 µM
  relative viability: 0.855
RO-3306; 0.1 µM
  relative viability: 0.969
RO-3306; 0.3162 µM
  relative viability: 1.05
RO-3306; 1 µM
  relative viability: 0.828
[1]; 0.8 µM
  relative viability: 1.06
[1]; 2.53 µM
  relative viability: 0.985
[1]; 8 µM
  relative viability: 1.11
Foretinib
  relative viability: 1.03
